SMILES strings stand for the structures. Read-outs that look alike come from different tables or passages of the source.

The nature of data set [1]: in vitro. The settings on record: for half-life at 5 μM: plasma; for Human Plasma Stability t½ min: 37° C., 5 μM, t½ > 240 min considered stable. As to the method:
Rat and human plasma were obtained from qualified vendors. […] The assay was performed in duplicate.

The nature of data set [2]: in vitro. The settings on record: 0.5 mg microsome/mL, 1 mM NADPH; for Rat liver microsomal stability (RLM) t½ min: 1 uM. How it is done:
Precipitated proteins were removed by centrifugation, followed by withdrawing and diluting the supernatant for analysis. Two positive controls and negative controls (without NADPH) were used in the study. All samples were analyzed in duplicates. LC/MS/MS was performed for detection and quantification of the test compounds. Linear regression was determined using the remaining percentage of the parent drug at each incubation time and t1/2 value was calculated.

The conditions of data set [3]: 37° C., 5 μM; for Chemical Stability, pH 4.5: pH 4.5 PBS; for Chemical Stability, pH 7.4: pH 7.4 PBS. How it is done: Chemical stability of the prodrug compounds was tested at pH 4.5 and pH 7.4 (pH adjusted in phosphate buffer saline). Both buffer solutions at two pHs were prepared in house. 2 μL of 500 μM stock solution of the prodrug was added to each vial containing 198 μL PBS at pH 7.4 or pH 4.5 and mixed evenly. The assay was performed in duplicate. The final concentration of the test compound was 5 μM. samples were incubated at 37° C. at 600 rpm. […] Samples from individual vials were used for the different time points. The samples were vortexed for 2 minutes and centrifuged at 3,220 g for 5 minutes at 4° C. […] of the supernatant was transferred to a new plate.

Data set [4] deals with Glucocorticoid receptor (GR) (Homo sapiens, UniProt P04150). How it is done: Glucocorticoid receptor (GR) binding of prodrugs was determined using TR-FRET GR competitive binding assay. Three-point (0.1, 1 and 10 μM) binding was evaluated for each prodrug.
Glucocorticoid receptor (GR), sequence (P04150 whole entry, species assumed): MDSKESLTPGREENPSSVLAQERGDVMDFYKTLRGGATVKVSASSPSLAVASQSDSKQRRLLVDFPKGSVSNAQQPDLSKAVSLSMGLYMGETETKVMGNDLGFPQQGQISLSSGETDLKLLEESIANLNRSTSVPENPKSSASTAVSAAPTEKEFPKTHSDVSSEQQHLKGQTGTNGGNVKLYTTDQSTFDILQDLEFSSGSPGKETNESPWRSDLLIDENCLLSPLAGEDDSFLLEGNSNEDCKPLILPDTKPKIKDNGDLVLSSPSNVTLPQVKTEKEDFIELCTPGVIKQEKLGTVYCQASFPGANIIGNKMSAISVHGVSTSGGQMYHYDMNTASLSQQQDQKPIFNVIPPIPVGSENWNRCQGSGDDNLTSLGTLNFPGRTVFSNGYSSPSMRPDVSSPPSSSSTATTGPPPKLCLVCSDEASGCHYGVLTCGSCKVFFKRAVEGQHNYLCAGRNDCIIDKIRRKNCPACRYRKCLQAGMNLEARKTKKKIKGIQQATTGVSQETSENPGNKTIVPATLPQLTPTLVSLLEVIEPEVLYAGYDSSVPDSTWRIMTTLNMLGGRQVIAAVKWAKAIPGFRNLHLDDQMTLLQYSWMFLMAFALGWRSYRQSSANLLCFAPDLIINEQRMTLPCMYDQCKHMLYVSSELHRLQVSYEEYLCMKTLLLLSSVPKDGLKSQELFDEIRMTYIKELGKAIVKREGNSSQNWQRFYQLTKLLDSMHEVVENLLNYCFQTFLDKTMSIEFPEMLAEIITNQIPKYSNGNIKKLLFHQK
Data set [5] in a line: in vitro. The settings on record: human, Caco-2, pH 7.4.
Experimental: The objective of this study was to evaluate the bidirectional permeability and absorption mechanisms of the test compounds. CaCO-2 cells were cultured, and a monolayer was developed in-house in 96 well-plates over 18 days using standard protocol. The monolayer was tested for the integrity of the cell monolayer before using.
Test compounds were added to the transwell insert (apical compartment) to determine the rate of drug transport in the apical to basolateral direction. To determine the rate of drug transport in the basolateral to apical direction, the test compound was added to the receiver plate wells (basolateral compartment). Appropriate amount of HBSS (10 mM HEPES, pH 7.4) was added in both compartments for a final volume of 200 μL. The plates were incubated at 37° C. with shaking at 150 rpm on a rotary shaker for 2 hours. At the end of the transport period, 50 μL from the apical and basolateral wells were collected and 4 volume of cold acetonitrile containing internal standards (IS: 100 nM alprazolam, 200 nM labetalol, and 2 μM ketoprofen) was added to each sample to terminate the reaction. The samples were vortexed and centrifuged at 3,800 g for 20 minutes. An aliquot of 150 μL of the supernatant was used for LC/MS/MS analysis. All samples were analyzed in duplicates. Samples were analyzed through LC/MS/MS for estimating the permeability and efflux of the compounds across Caco-2 cell monolayers.
A short description of data set [6]: in vitro. Particulars: dog, MDCK.

What is called half-life is the time in which the quantity being followed falls by half. Higher therefore signals slow loss. `C[C@@H]1C[C@H]2[C@@H]3CCC4=CC(=O)C=C[C@]4(C)[C@@]3(F)[C@@H](O)C[C@]2(C)[C@@]1(O)/C(CO)=N\NC(=O)C(N)Cc1ccccc1` (single isomer, unassigned) [Compound IIIA] came in with a half-life at 5 μM in data set [1] (human) of more than 4 h. Also, in data set [1] (rat), the half-life at 5 μM was more than 4 h. Besides, the “Rat liver microsomal stability (RLM) t½ min” value (shortened to “Rat liver microsomal stability”) in data set [2] stood at 0.55 h. In data set [3], the “Chemical Stability, pH 4.5” value is listed as “Yes” and the “Chemical Stability, pH 7.4” value is reported as “Yes”.

As to `C[C@@H]1C[C@H]2[C@@H]3CCC4=CC(=O)C=C[C@]4(C)[C@@]3(F)[C@@H](O)C[C@]2(C)[C@@]1(O)/C(CO)=N\NC(=O)C(N)Cc1ccccc1` (single isomer, unassigned) [Compound IIIB], the “Human Plasma Stability t½ min” value in data set [1] is more than 4 h. Further, in data set [2], the “Rat liver microsomal stability” value amounted to 1.35 h. In addition, in data set [3], the “Chemical Stability, pH 4.5” value is listed as “Yes”. In data set [3], the “Chemical Stability, pH 7.4” value is reported as “Yes”. Besides, the “GR Binding Data” value was found to be 8% in data set [4] (@ 0.1 uM), 8% in data set [4] (@ 1 uM) and 68% in data set [4] (@ 10 uM).

The Papp A→B is the apparent permeability from the apical to the basolateral side of a cell layer. High values mean ready permeation, low ones poor permeation. Broadly, the Papp B→A is how fast a substance crosses the layer from the basolateral side. `CC(C)C(N)C(=O)N/N=C(/CO)[C@@]1(O)[C@H](C)C[C@H]2[C@@H]3CCC4=CC(=O)C=C[C@]4(C)[C@@]3(F)[C@@H](O)C[C@@]21C` (single isomer, unassigned) [Compound IVA] registered an apical-to-basolateral permeability (Papp A→B) at 2 h in data set [5] of 0.2 ×10⁻⁶ cm/s. This compound gave a Papp B→A at 2 h in data set [5] of 4 ×10⁻⁶ cm/s. Besides, the half-life at 5 μM in data set [1] (human) and in data set [1] (rat) was more than 4 h throughout. Besides, in data set [2], the “Rat liver microsomal stability” value was 0.583 h. The “Chemical Stability, pH 4.5” value in data set [3] was “Yes”. In data set [3], the “Chemical Stability, pH 7.4” value was “Yes”. Besides, the results for the “GR Binding Data” value in data set [4] (@ 0.1 uM), in data set [4] (@ 1 uM) and in data set [4] (@ 10 uM) were 4%, 8% and 64%, respectively.

Turning to `CC(C)C(N)C(=O)N/N=C(/CO)[C@@]1(O)[C@H](C)C[C@H]2[C@@H]3CCC4=CC(=O)C=C[C@]4(C)[C@@]3(F)[C@@H](O)C[C@@]21C` (single isomer, unassigned) [Compound IVB], the “Human Plasma Stability t½ min” value in data set [1] is more than 4 h. Further, the “Rat liver microsomal stability” value in data set [2] came to 1.8 h. Moreover, the “Chemical Stability, pH 4.5” value in data set [3] was “Yes”. Further, the “Chemical Stability, pH 7.4” value in data set [3] was “Yes”. Moreover, the “GR Binding Data” value in data set [4] (@ 0.1 uM) amounted to 3%; in data set [4] (@ 1 uM), 16%; in data set [4] (@ 10 uM), 72%.

`CC(C)C(N)C(=O)N/N=C1\C=C[C@@]2(C)C(=C1)CC[C@H]1[C@@H]3C[C@@H](C)[C@](O)(C(=O)CO)[C@@]3(C)C[C@H](O)[C@@]12F` (single isomer, unassigned) [Compound VA]: in data set [1] (rat), the half-life at 5 μM is more than 4 h. The half-life at 1 uM in data set [2] (rat, liver microsomes, Rat liver microsomal stability (RLM) t½ min) came out at 0.733 h. In addition, in data set [3], the “Chemical Stability, pH 4.5” value is given as “Yes” and the “Chemical Stability, pH 7.4” value is given as “Yes”.

As to `CC(C)C(N)C(=O)N/N=C1\C=C[C@@]2(C)C(=C1)CC[C@H]1[C@@H]3C[C@@H](C)[C@](O)(C(=O)CO)[C@@]3(C)C[C@H](O)[C@@]12F` (single isomer, unassigned) [Compound VB], in data set [3], the “Chemical Stability, pH 4.5” value was “Yes” and the “Chemical Stability, pH 7.4” value is “Yes”.

Turning to `CCC(=O)N/N=C(\CO)[C@@]1(O)[C@H](C)C[C@H]2[C@@H]3CCC4=CC(=O)C=C[C@]4(C)[C@@]3(F)[C@@H](O)C[C@@]21C` [Compound II], the half-life at 5 μM in data set [1] (human) was more than 4 h. In data set [3], the “Chemical Stability, pH 4.5” value is recorded as “Yes” and the “Chemical Stability, pH 7.4” value was “Yes”.

For `C[C@@H]1C[C@H]2[C@@H]3CCC4=C/C(=N/NC(=O)[C@H](Cc5ccccc5)N(C)C)C=C[C@]4(C)[C@@]3(F)[C@@H](O)C[C@]2(C)[C@@]1(O)C(=O)CO` [Compound IXA], the half-life at 5 μM in data set [1] (rat) was more than 4 h.

In data set [1] (rat), `C[C@@H]1C[C@H]2[C@@H]3CCC4=C/C(=N\NC(=O)[C@H](Cc5ccccc5)N(C)C)C=C[C@]4(C)[C@@]3(F)[C@@H](O)C[C@]2(C)[C@@]1(O)C(=O)CO` [Compound IXB] displayed a half-life at 5 μM of more than 4 h.

Regarding `CCC(=O)N/N=C1\C=C[C@@]2(C)C(=C1)CC[C@H]1[C@@H]3C[C@@H](C)[C@](O)(C(=O)CO)[C@@]3(C)C[C@H](O)[C@@]12F` [Compound I], the half-life at 5 μM in data set [1] (human) is more than 4 h. Also, in data set [3], the “Chemical Stability, pH 4.5” value is reported as “Yes” and the “Chemical Stability, pH 7.4” value was “Yes”.

In data set [5], `C[C@@H]1C[C@H]2[C@@H]3CCC4=C/C(=N/NC(=O)[C@@H](N)Cc5ccccc5)C=C[C@]4(C)[C@@]3(F)[C@@H](O)C[C@]2(C)[C@@]1(O)C(=O)CO` [Compound VIIA] had a Papp A→B at 2 h of 0.17 ×10⁻⁶ cm/s and a basolateral-to-apical permeability (Papp B→A) at 2 h of 11 ×10⁻⁶ cm/s. In addition, in data set [1] (rat), the half-life at 5 μM is more than 4 h. In data set [6], this compound displayed a Papp A→B of 0.15 ×10⁻⁶ cm/s and a Papp B→A of 1.29 ×10⁻⁶ cm/s. Besides, in data set [3], the “Chemical Stability, pH 4.5” value is reported as “Yes” and the “Chemical Stability, pH 7.4” value is “Yes”.

In data set [5], `C[C@@H]1C[C@H]2[C@@H]3CCC4=C/C(=N\NC(=O)[C@@H](N)Cc5ccccc5)C=C[C@]4(C)[C@@]3(F)[C@@H](O)C[C@]2(C)[C@@]1(O)C(=O)CO` [Compound VIIB] returned an apparent permeability from apical to basolateral (Papp A→B) at 2 h of 0.13 ×10⁻⁶ cm/s and an apparent permeability from basolateral to apical (Papp B→A) at 2 h of 9 ×10⁻⁶ cm/s. For the same compound, the half-life at 5 μM in data set [1] (rat) was more than 4 h. In data set [6], this compound registered a Papp A→B of 0.12 ×10⁻⁶ cm/s and a Papp B→A of 0.87 ×10⁻⁶ cm/s. Also, in data set [3], the “Chemical Stability, pH 4.5” value was “Yes” and the “Chemical Stability, pH 7.4” value is “Yes”.

`C[C@@H]1C[C@H]2[C@@H]3CCC4=C/C(=N\NC(=O)[C@H](N)Cc5ccccc5)C=C[C@]4(C)[C@@]3(F)[C@@H](O)C[C@]2(C)[C@@]1(O)C(=O)CO` [Compound VIIIB] came in with a half-life at 5 μM in data set [1] (rat) of more than 4 h. Also, the “GR Binding Data” value came out at 19% in data set [4] (@ 0.1 uM), 26% in data set [4] (@ 1 uM) and 72% in data set [4] (@ 10 uM).

In data set [5], `C[C@@H]1C[C@H]2[C@@H]3CCC4=C/C(=N/NC(=S)[C@@H](N)Cc5ccccc5)C=C[C@]4(C)[C@@]3(F)[C@@H](O)C[C@]2(C)[C@@]1(O)C(=O)CO` [Compound X] gave a Papp A→B at 2 h of 0.33 ×10⁻⁶ cm/s and an apparent permeability from basolateral to apical (Papp B→A) at 2 h of 4 ×10⁻⁶ cm/s. The compound also gave a half-life at 5 μM in data set [1] (rat) of 2.08 h. In data set [6], the apical-to-basolateral permeability (Papp A→B) is less than 0.17 ×10⁻⁶ cm/s and the apparent permeability from basolateral to apical (Papp B→A) was found to be 1.82 ×10⁻⁶ cm/s.

`C[C@@H]1C[C@H]2[C@@H]3CCC4=CC(=O)C=C[C@]4(C)[C@@]3(F)[C@@H](O)C[C@]2(C)[C@@]1(O)C(=O)CO` [Dexamethasone, reference compound]: the “GR Binding Data” value in data set [4] (@ 1 nM) is recorded as 16%; in data set [4] (@ 10 nM), 50%; in data set [4] (@100 nM), 93%.

The values are drawn from patent publication US20260263603A1, “PRODRUGS, PRODRUG COMPOSITIONS AND RELATED METHODS” (Praesidia Biotherapeutics Inc., priority 2023, published 2026).
